# Tested on: MV-4-11 cells
# Assay: Gene expression microarray analysis (Affymetrix PrimeView) and GSEA
# Format: cell-based, human
# Parameters: RFU PODN (11730768_x_at) / Fold change /veh PODN (11730768_x_at) / RFU LINC00158 (11744669_a_at) / Fold change /veh LINC00158 (11744669_a_at) / RFU DUSP10 (11751237_a_at) / Fold change /veh DUSP10 (11751237_a_at) / RFU ID3 (11757404_x_at) / Fold change /veh ID3 (11757404_x_at) / RFU PLEKHG5 (11737974_s_at) / Fold change /veh PLEKHG5 (11737974_s_at) / RFU LRRC4B (11730491_at) / Fold change /veh LRRC4B (11730491_at) / RFU GIMAP4 (11747438_a_at) / Fold change /veh GIMAP4 (11747438_a_at) / RFU KRT8 (11758183_x_at) / Fold change /veh KRT8 (11758183_x_at) / RFU CNN1 (11734310_a_at) / Fold change /veh CNN1 (11734310_a_at) / RFU VPS37D (11726825_at) / Fold change /veh VPS37D (11726825_at) / RFU C10orf10 (11716522_x_at) / Fold change /veh C10orf10 (11716522_x_at) / RFU KIR2DL2 /// KIR2DL4 /// KIR2DL5A /// KIR2DL5B /// KIR2DS1 /// KIR2DS2 /// KIR2DS3 /// KIR2DS4 /// KIR3DL3 /// KIR3DL3 /// KIR3DS1 (11738374_at) / Fold change /veh KIR2DL2 /// KIR2DL4 /// KIR2DL5A /// KIR2DL5B /// KIR2DS1 /// KIR2DS2 /// KIR2DS3 /// KIR2DS4 /// KIR3DL3 /// KIR3DL3 /// KIR3DS1 (11738374_at) / RFU C1QL1 (11718748_at) / Fold change /veh C1QL1 (11718748_at) / RFU TMPRSS4 (11747572_a_at) / Fold change /veh TMPRSS4 (11747572_a_at) / RFU HAMP (11756126_x_at) / Fold change /veh HAMP (11756126_x_at) / RFU RNFT2 (11725882_a_at) / Fold change /veh RNFT2 (11725882_a_at) / RFU NR4A2 (11747474_a_at) / Fold change /veh NR4A2 (11747474_a_at) / RFU ABCC12 (11746883_a_at) / Fold change /veh ABCC12 (11746883_a_at) / RFU TMEM136 (11760407_x_at) / Fold change /veh TMEM136 (11760407_x_at) / RFU CLDN22 /// WWC2 (11732394_at) / Fold change /veh CLDN22 /// WWC2 (11732394_at) / RFU HLA-DPB1 (11760878_x_at) / Fold change /veh HLA-DPB1 (11760878_x_at) / RFU SPINT1 (11716480_a_at) / Fold change /veh SPINT1 (11716480_a_at) / RFU GAP43 (11754022_s_at) / Fold change /veh GAP43 (11754022_s_at) / RFU A4GNT (11735810_at) / Fold change /veh A4GNT (11735810_at) / RFU PRB3 (11715151_x_at) / Fold change /veh PRB3 (11715151_x_at) / RFU TUBB4B (11761932_at) / Fold change /veh TUBB4B (11761932_at) / RFU CAPN14 (11732068_a_at) / Fold change /veh CAPN14 (11732068_a_at) / RFU TMCC2 (11721928_a_at) / Fold change /veh TMCC2 (11721928_a_at) / RFU IRGQ (11745062_a_at) / Fold change /veh IRGQ (11745062_a_at) / RFU FAM174B (11720279_a_at) / Fold change /veh FAM174B (11720279_a_at) / RFU TMPRSS4 (11748680_a_at) / Fold change /veh TMPRSS4 (11748680_a_at) / RFU FAM212B (11763350_a_at) / Fold change /veh FAM212B (11763350_a_at) / RFU PLEKHG5 (11743358_a_at) / Fold change /veh PLEKHG5 (11743358_a_at) / RFU ZSCAN30 (11745921_a_at) / Fold change /veh ZSCAN30 (11745921_a_at) / RFU CMKLR1 (11741424_a_at) / Fold change /veh CMKLR1 (11741424_a_at) / RFU LOC101060620 /// MAPK8IP1 (11723275_at) / Fold change /veh LOC101060620 /// MAPK8IP1 (11723275_at) / RFU SPTSSB (11747773_x_at) / Fold change /veh SPTSSB (11747773_x_at) / RFU PRSS12 (11739890_at) / Fold change /veh PRSS12 (11739890_at) / RFU BIN1 (11741810_x_at) / Fold change /veh BIN1 (11741810_x_at) / RFU WNT11 (11732464_a_at) / Fold change /veh WNT11 (11732464_a_at) / RFU C10orf10 (11716521_a_at) / Fold change /veh C10orf10 (11716521_a_at) / RFU C5orf56 (11738089_at) / Fold change /veh C5orf56 (11738089_at) / RFU CYB561 (11721691_x_at) / Fold change /veh CYB561 (11721691_x_at) / RFU ANKRD19P (11752326_a_at) / Fold change /veh ANKRD19P (11752326_a_at) / RFU OR2T12 /// OR2T33 /// OR2T8 (11738714_s_at) / Fold change /veh OR2T12 /// OR2T33 /// OR2T8 (11738714_s_at) / RFU VCAN (11748164_a_at) / Fold change /veh VCAN (11748164_a_at) / RFU JSRP1 (11732532_at) / Fold change /veh JSRP1 (11732532_at) / RFU KRTAP10-11 (11738290_x_at) / Fold change /veh KRTAP10-11 (11738290_x_at) / RFU MYO3A (11730013_a_at) / Fold change /veh MYO3A (11730013_a_at) / RFU EBF3 (11725865_a_at) / Fold change /veh EBF3 (11725865_a_at) / RFU CAMK2N1 (11719241_x_at) / Fold change /veh CAMK2N1 (11719241_x_at) / RFU C5orf56 (11738088_a_at) / Fold change /veh C5orf56 (11738088_a_at) / RFU OLFML3 (11715873_a_at) / Fold change /veh OLFML3 (11715873_a_at) / RFU LOC100653217 /// NTM (11731650_a_at) / Fold change /veh LOC100653217 /// NTM (11731650_a_at) / RFU MAPK11 (11762145_a_at) / Fold change /veh MAPK11 (11762145_a_at) / RFU FIZ1 (11724087_x_at) / Fold change /veh FIZ1 (11724087_x_at) / RFU OASL (11726364_x_at) / Fold change /veh OASL (11726364_x_at) / RFU SOX15 (11748057_x_at) / Fold change /veh SOX15 (11748057_x_at) / RFU CD79A (11719716_a_at) / Fold change /veh CD79A (11719716_a_at) / RFU HIST1H1D (11736915_at) / Fold change /veh HIST1H1D (11736915_at) / RFU CASKIN2 (11723855_a_at) / Fold change /veh CASKIN2 (11723855_a_at) / RFU LOC730098 (11760151_x_at) / Fold change /veh LOC730098 (11760151_x_at) / RFU OR4N2 (11742367_at) / Fold change /veh OR4N2 (11742367_at) / RFU PRRT2 (11749266_a_at) / Fold change /veh PRRT2 (11749266_a_at) / RFU SNX32 (11753110_a_at) / Fold change /veh SNX32 (11753110_a_at) / RFU CDHR5 (11726645_a_at) / Fold change /veh CDHR5 (11726645_a_at) / RFU RCAN1 (11760418_a_at) / Fold change /veh RCAN1 (11760418_a_at) / RFU FAM167A (11723789_a_at) / Fold change /veh FAM167A (11723789_a_at) / RFU FAM26E (11764081_at) / Fold change /veh FAM26E (11764081_at) / RFU ISYNA1 (11749810_s_at) / Fold change /veh ISYNA1 (11749810_s_at) / RFU ACY1 (11761880_at) / Fold change /veh ACY1 (11761880_at) / RFU 11764098_at / Fold change /veh 11764098_at / RFU SAMD14 (11745864_x_at) / Fold change /veh SAMD14 (11745864_x_at) / RFU NPB (11741838_a_at) / Fold change /veh NPB (11741838_a_at) / RFU TMPRSS6 (11731388_a_at) / Fold change /veh TMPRSS6 (11731388_a_at) / RFU KRTAP10-2 (11738614_at) / Fold change /veh KRTAP10-2 (11738614_at) / RFU ARHGAP8 /// PRR5-ARHGAP8 (11727945_x_at) / Fold change /veh ARHGAP8 /// PRR5-ARHGAP8 (11727945_x_at) / RFU KRTAP5-7 /// NADSYN1 (11734609_at) / Fold change /veh KRTAP5-7 /// NADSYN1 (11734609_at) / RFU RASL12 (11751679_a_at) / Fold change /veh RASL12 (11751679_a_at) / RFU CDKN2B (11736163_a_at) / Fold change /veh CDKN2B (11736163_a_at) / RFU PRF1 (11729649_at) / Fold change /veh PRF1 (11729649_at) / RFU, ZNF638 /// ZNF638-IT1 / Fold change vs veh, ZNF638 /// ZNF638-IT1 / RFU, PANK3 / Fold change vs veh, PANK3 / RFU, SH3YL1 / Fold change vs veh, SH3YL1 / RFU, ZEB2 / Fold change vs veh, ZEB2 / RFU, NRIP1 / Fold change vs veh, NRIP1 / RFU, PTTG1IP / Fold change vs veh, PTTG1IP / RFU, CAPN2 / Fold change vs veh, CAPN2 / RFU, MED14 / Fold change vs veh, MED14 / RFU, SNORA58 / Fold change vs veh, SNORA58 / RFU, C1orf63 / Fold change vs veh, C1orf63 / RFU, LRRFIP1 / Fold change vs veh, LRRFIP1 / RFU, NDUFAF7 / Fold change vs veh, NDUFAF7 / RFU, SLC12A2 / Fold change vs veh, SLC12A2 / RFU, IBTK / Fold change vs veh, IBTK / RFU, ESF1 / Fold change vs veh, ESF1 / Fold change vs veh, TMEM50B / RFU, TAOK1 / Fold change vs veh, TAOK1 / RFU, ACBD3 / Fold change vs veh, ACBD3 / RFU, TMA16 / Fold change vs veh, TMA16 / RFU, RWDD3 / Fold change vs veh, RWDD3 / RFU, BCAT1 / Fold change vs veh, BCAT1 / RFU, EDEM3 / Fold change vs veh, EDEM3 / RFU, TMEM33 / Fold change vs veh, TMEM33 / RFU, WDR75 / Fold change vs veh, WDR75 / RFU, AHCTF1 / Fold change vs veh, AHCTF1 / RFU, TFRC / Fold change vs veh, TFRC / RFU, ZDHHC17 / Fold change vs veh, ZDHHC17 / RFU, NOM1 / Fold change vs veh, NOM1 / RFU, ARL8B / Fold change vs veh, ARL8B / RFU, ZBTB11 / Fold change vs veh, ZBTB11 / RFU, TAMM41 / Fold change vs veh, TAMM41 / RFU, KIAA1704 /// LOC100996395 / Fold change vs veh, KIAA1704 /// LOC100996395 / RFU, ING1 / Fold change vs veh, ING1 / RFU, TRMT61B / Fold change vs veh, TRMT61B / RFU, FUBP3 / Fold change vs veh, FUBP3 / RFU, TP53 / Fold change vs veh, TP53 / RFU, TNKS2 / Fold change vs veh, TNKS2 / RFU, ZFP14 / Fold change vs veh, ZFP14 / RFU, ACTR2 / Fold change vs veh, ACTR2 / RFU, PPP3R1 / Fold change vs veh, PPP3R1 / RFU, PIK3R1 / Fold change vs veh, PIK3R1 / RFU, HNRNPA1 / Fold change vs veh, HNRNPA1 / RFU, RNF170 / Fold change vs veh, RNF170 / RFU, ZNF28 / Fold change vs veh, ZNF28 / RFU, RNGTT / Fold change vs veh, RNGTT / RFU, OGT / Fold change vs veh, OGT / RFU, BRD1 / Fold change vs veh, BRD1 / RFU, MARS / Fold change vs veh, MARS / RFU, ZNF655 / Fold change vs veh, ZNF655 / RFU, FAHD1 / Fold change vs veh, FAHD1 / RFU, BDP1 / Fold change vs veh, BDP1 / RFU, LRRCC1 / Fold change vs veh, LRRCC1 / RFU, ARID1A / Fold change vs veh, ARID1A / RFU, ZNF146 / Fold change vs veh, ZNF146 / RFU, ZNF330 / Fold change vs veh, ZNF330 / RFU, GPN3 / Fold change vs veh, GPN3 / RFU, C9orf123 / Fold change vs veh, C9orf123 / RFU, N4BP2L2 / Fold change vs veh, N4BP2L2 / RFU, ARFIP1 / Fold change vs veh, ARFIP1 / RFU, FAM179B / Fold change vs veh, FAM179B / RFU, BCL10 / Fold change vs veh, BCL10 / RFU, UHRF1BP1L / Fold change vs veh, UHRF1BP1L / RFU, BET1 / Fold change vs veh, BET1 / RFU, CNOT2 / Fold change vs veh, CNOT2 / RFU, ZNF268 / Fold change vs veh, ZNF268 / Fold change vs veh, ZNF507 / RFU, DGCR2 / Fold change vs veh, DGCR2 / RFU, WDSUB1 / Fold change vs veh, WDSUB1 / Fold change vs veh, HSP90B1 /// MIR3652 / RFU, ADSS / Fold change vs veh, ADSS / RFU, GK / Fold change vs veh, GK / RFU, ZNF148 / Fold change vs veh, ZNF148 / RFU, TAF9 / Fold change vs veh, TAF9 / RFU, SLC1A5 / Fold change vs veh, SLC1A5 / RFU, SLMO2 / Fold change vs veh, SLMO2 / RFU, ABCC4 / Fold change vs veh, ABCC4 / RFU, LOC101060439 /// RAP1B / Fold change vs veh, LOC101060439 /// RAP1B / RFU, RFX7 / Fold change vs veh, RFX7 / RFU, GTPBP10 / Fold change vs veh, GTPBP10 / RFU, CNEP1R1 / Fold change vs veh, CNEP1R1 / RFU, BIVM-ERCC5 /// ERCC5 / Fold change vs veh, BIVM-ERCC5 /// ERCC5 / RFU, ILF3 / Fold change vs veh, ILF3 / RFU 11762660_at / Fold change /veh 11762660_at / RFU VCAN (11757783_s_at) / Fold change /veh VCAN (11757783_s_at) / RFU DDX43 (11728927_at) / Fold change /veh DDX43 (11728927_at) / RFU KRT8 (11758188_x_at) / Fold change /veh KRT8 (11758188_x_at) / RFU NKD1 (11759106_at) / Fold change /veh NKD1 (11759106_at) / RFU SRD5A1 (11742802_a_at) / Fold change /veh SRD5A1 (11742802_a_at) / RFU TPSAB1 /// TPSB2 (11721975_s_at) / Fold change /veh TPSAB1 /// TPSB2 (11721975_s_at) / RFU GSTM3 (11746129_a_at) / Fold change /veh GSTM3 (11746129_a_at) / RFU IL23R (11737362_x_at) / Fold change /veh IL23R (11737362_x_at) / RFU TMEM51 (11727254_a_at) / Fold change /veh TMEM51 (11727254_a_at) / RFU PIWIL2 (11732686_x_at) / Fold change /veh PIWIL2 (11732686_x_at) / RFU ORM1 (11744905_x_at) / Fold change /veh ORM1 (11744905_x_at) / RFU CCDC152 (11743942_at) / Fold change /veh CCDC152 (11743942_at) / RFU ECM1 (11717891_a_at) / Fold change /veh ECM1 (11717891_a_at) / RFU IL23R (11748794_a_at) / Fold change /veh IL23R (11748794_a_at) / RFU TNFAIP8L3 (11732012_x_at) / Fold change /veh TNFAIP8L3 (11732012_x_at) / RFU MBOAT4 (11741988_at) / Fold change /veh MBOAT4 (11741988_at) / RFU 11764193_at / Fold change /veh 11764193_at / RFU TMEM53 (11763286_at) / Fold change /veh TMEM53 (11763286_at) / RFU MAGEB2 (11727129_at) / Fold change /veh MAGEB2 (11727129_at) / RFU TMEM200A (11744735_a_at) / Fold change /veh TMEM200A (11744735_a_at) / RFU CCDC152 (11751479_a_at) / Fold change /veh CCDC152 (11751479_a_at) / RFU FAM211A (11726209_a_at) / Fold change /veh FAM211A (11726209_a_at) / RFU RGS16 (11746705_a_at) / Fold change /veh RGS16 (11746705_a_at) / RFU VCAN (11755009_s_at) / Fold change /veh VCAN (11755009_s_at) / RFU RHOB (11743442_s_at) / Fold change /veh RHOB (11743442_s_at) / RFU RGS16 (11720943_a_at) / Fold change /veh RGS16 (11720943_a_at) / RFU RGS16 (11720944_at) / Fold change /veh RGS16 (11720944_at) / RFU, VPS4B / Fold change vs veh, VPS4B / RFU, CREB1 / Fold change vs veh, CREB1 / RFU, DNAJC13 / Fold change vs veh, DNAJC13 / RFU, GNAQ / Fold change vs veh, GNAQ / RFU, CDK5R1 / Fold change vs veh, CDK5R1 / RFU, ZRANB3 / Fold change vs veh, ZRANB3 / RFU, CUL4A / Fold change vs veh, CUL4A / RFU, CCNY / Fold change vs veh, CCNY / RFU, UFL1 / Fold change vs veh, UFL1 / RFU, COG3 / Fold change vs veh, COG3 / RFU, DIAPH2 / Fold change vs veh, DIAPH2 / RFU, SKA2 / Fold change vs veh, SKA2 / RFU, AFF3 / Fold change vs veh, AFF3 / RFU, LMF1 / Fold change vs veh, LMF1 / RFU, IPO11 / Fold change vs veh, IPO11 / RFU, DFFB / Fold change vs veh, DFFB / RFU, FOXP1 / Fold change vs veh, FOXP1 / RFU, CARD8 / Fold change vs veh, CARD8 / RFU, STRN3 / Fold change vs veh, STRN3 / RFU, ADK / Fold change vs veh, ADK / RFU, RASSF2 / Fold change vs veh, RASSF2 / RFU, WIPF1 / Fold change vs veh, WIPF1 / RFU, LARP1B / Fold change vs veh, LARP1B / RFU, RASA1 / Fold change vs veh, RASA1 / RFU, RB1 / Fold change vs veh, RB1 / RFU, PPFIA1 / Fold change vs veh, PPFIA1 / RFU, MAT2A / Fold change vs veh, MAT2A / RFU, CCT5 / Fold change vs veh, CCT5 / RFU, WDR92 / Fold change vs veh, WDR92 / RFU, CUX1 / Fold change vs veh, CUX1 / RFU, TTC7A / Fold change vs veh, TTC7A / RFU, TMEM135 / Fold change vs veh, TMEM135 / RFU, DEPTOR / Fold change vs veh, DEPTOR / RFU, CPM / Fold change vs veh, CPM / RFU, DNAJB6 / Fold change vs veh, DNAJB6 / RFU, CACNA2D3 / Fold change vs veh, CACNA2D3 / RFU, DTX4 / Fold change vs veh, DTX4 / RFU, TFCP2 / Fold change vs veh, TFCP2 / RFU, GMCL1 /// GMCL1P1 / Fold change vs veh, GMCL1 /// GMCL1P1 / RFU, AEBP2 / Fold change vs veh, AEBP2 / RFU, SNHG1 /// SNORD22 /// SNORD25 /// SNORD26 /// SNORD27 /// SNORD28 /// SNORD29 /// SNORD31 / Fold change vs veh, SNHG1 /// SNORD22 /// SNORD25 /// SNORD26 /// SNORD27 /// SNORD28 /// SNORD29 /// SNORD31 / Fold change (Aza/veh), C12orf56 (ProbeSet 11735607_a_at) / Fold change (ACY-1035/veh), C12orf56 (ProbeSet 11735607_a_at) / Fold change (Aza/veh), FGFR1OP (ProbeSet 11751329_s_at) / Fold change (ACY-1035/veh), FGFR1OP (ProbeSet 11751329_s_at) / Fold change (Aza/veh), VPS36 (ProbeSet 11739960_a_at) / Fold change (ACY-1035/veh), VPS36 (ProbeSet 11739960_a_at) / RFU SYPL1 (11715823_x_at) / Fold change /veh SYPL1 (11715823_x_at) / RFU IGFBP7 (11715501_s_at) / Fold change /veh IGFBP7 (11715501_s_at) / RFU REEP3 (11722064_at) / Fold change /veh REEP3 (11722064_at) / RFU IGLL1 (11728026_x_at) / Fold change /veh IGLL1 (11728026_x_at): dose or concentration left out as unconfirmed
# Details: ProbeSet 11749781_s_at; LIST B
smiles,measurement,value
Nc1ncn([C@@H]2O[C@H](CO)[C@@H](O)[C@H]2O)c(=O)n1 [azacitidine],"Fold change vs veh, BCAT1",0.85

# — paper PMC5218480 (PLoS ONE, 2017)
